Laboratory results published in the supplement of paper PMC10307832.

Columns and labels:
Experiment in all cases: relative viability (nuclei count vs DMSO), 5 days (fraction); higher = more cells survive
Alisertib + Pemetrexed = compound: COc1cc(Nc2ncc3c(n2)-c2ccc(Cl)cc2C(c2c(F)cccc2OC)=NC3)ccc1C(=O)O [Alisertib] + Nc1nc2[nH]cc(CCc3ccc(C(=O)N[C@@H](CCC(=O)O)C(=O)O)cc3)c2c(=O)[nH]1 [Pemetrexed] (partner 0.2 µM)
Procedure, shortened: (§1)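 Each reported value is a median over duplicate plates. It expresses relative viability: treated-well nuclei count divided by vehicle-well nuclei count. Lung cancer cell lines in 1536-well plates were dosed by pin tool a day after seeding, alone with one drug or with a fixed anchor-drug dose plus five library-drug doses (not always all listed) in √10 steps, and nuclei were counted after 5 days.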

Alisertib + Alpelisib = compound: COc1cc(Nc2ncc3c(n2)-c2ccc(Cl)cc2C(c2c(F)cccc2OC)=NC3)ccc1C(=O)O [Alisertib] + Cc1nc(NC(=O)N2CCC[C@H]2C(N)=O)sc1-c1ccnc(C(C)(C)C(F)(F)F)c1 [Alpelisib] (partner 2 µM)
Procedure, shortened: as §1

Alisertib + Olaparib = compound: COc1cc(Nc2ncc3c(n2)-c2ccc(Cl)cc2C(c2c(F)cccc2OC)=NC3)ccc1C(=O)O [Alisertib] + O=C(c1cc(Cc2n[nH]c(=O)c3ccccc23)ccc1F)N1CCN(C(=O)C2CC2)CC1 [Olaparib] (partner 8 µM)
Procedure, shortened: as §1

Alisertib + Foretinib = compound: COc1cc(Nc2ncc3c(n2)-c2ccc(Cl)cc2C(c2c(F)cccc2OC)=NC3)ccc1C(=O)O [Alisertib] + COc1cc2c(Oc3ccc(NC(=O)C4(C(=O)Nc5ccc(F)cc5)CC4)cc3F)ccnc2cc1OCCCN1CCOCC1 [Foretinib] (partner 0.25 µM)
Procedure, shortened: as §1

Cell Line	relative viability (Alisertib + Pemetrexed; first compound 0.005 µM)	relative viability (Alisertib + Pemetrexed; first compound 0.01581 µM)	relative viability (Alisertib + Pemetrexed; first compound 0.05 µM)	relative viability (Alisertib + Pemetrexed; first compound 0.1581 µM)	relative viability (Alisertib + Pemetrexed; first compound 0.5 µM)	relative viability (Alisertib + Alpelisib; first compound 0.005 µM)	relative viability (Alisertib + Alpelisib; first compound 0.01581 µM)	relative viability (Alisertib + Alpelisib; first compound 0.05 µM)	relative viability (Alisertib + Alpelisib; first compound 0.1581 µM)	relative viability (Alisertib + Alpelisib; first compound 0.5 µM)	relative viability (Alisertib + Olaparib; first compound 0.005 µM)	relative viability (Alisertib + Olaparib; first compound 0.01581 µM)	relative viability (Alisertib + Olaparib; first compound 0.05 µM)	relative viability (Alisertib + Olaparib; first compound 0.1581 µM)	relative viability (Alisertib + Olaparib; first compound 0.5 µM)	relative viability (Alisertib + Foretinib; first compound 0.005 µM)	relative viability (Alisertib + Foretinib; first compound 0.01581 µM)	relative viability (Alisertib + Foretinib; first compound 0.05 µM)	relative viability (Alisertib + Foretinib; first compound 0.1581 µM)	relative viability (Alisertib + Foretinib; first compound 0.5 µM)
NCI-H322M	0.588	0.628	0.561	0.4	0.427	0.64	0.794	0.857	0.476	0.303	0.77	0.686	0.565	0.459	0.488	0.896	0.925	0.649	0.402	0.397
NCI-H2347	0.424	0.423	0.416	0.409	0.349	0.903	0.877	0.857	0.637	0.436	0.555	0.546	0.474	0.491	0.365	0.733	0.84	0.863	0.454	0.459
NCI-H1975	0.289	0.265	0.235	0.214	0.185	0.632	0.621	0.295	0.215	0.168	0.68	0.627	0.347	0.234	0.163	0.816	0.989	0.501	0.204	0.165
NCI-H596	0.504	0.506	0.473	0.447	0.38	–	0.478	0.481	0.351	0.172	0.779	0.773	0.627	0.522	0.254	0.87	0.804	0.762	0.175	0.395
A-427	0.818	0.5	0.266	0.265	0.251	1.03	0.922	0.173	0.165	0.14	0.65	0.563	0.204	0.177	0.227	0.877	0.777	0.197	0.182	0.178
LCLC-97TM1	0.162	0.173	0.186	0.118	0.0781	0.23	0.203	0.15	0.138	0.112	0.332	0.306	0.102	0.0999	0.0824	0.91	0.707	0.379	0.253	0.182
HCC-15	0.234	0.212	0.187	0.143	0.135	0.875	0.662	0.229	0.148	0.106	0.689	0.444	0.191	0.165	0.145	0.999	0.627	0.184	0.139	0.129
NCI-H650	0.739	0.825	0.35	0.262	0.2	1.15	0.947	0.513	0.237	0.205	0.366	0.299	0.171	0.164	0.154	0.926	0.902	0.407	0.226	0.222
